Reference: the NIST ThermoML archive (doi:10.1016/j.jct.2009.05.005)
± gives the expanded uncertainty stated by the source.

Assay: xn = mol fraction of the nth substance listed
Conditions: 298.15 K, 101 kPa, Liquid, Vibrating tube method

Compound `CC1(C)[C@@H]2CC[C@@]1(C)C(=O)C2=O` [(-)-camphorquinone] + CCO has a mass density (x1 = 0.001389) of 786.235 ± 0.15 kg/m3, a mass density (x1 = 0.00209) of 786.827 ± 0.15 kg/m3 and a mass density (x1 = 0.002792) of 787.379 ± 0.15 kg/m3.

`CC1(C)[C@H]2CC[C@]1(C)C(=O)C2` [(1S)-1,7,7-trimethylbicyclo[2.2.1]heptan-2-one] + CCO showed a mass density (x1 = 0.001613) of 786.229 ± 0.15 kg/m3, a mass density (x1 = 0.003055) of 786.828 ± 0.15 kg/m3 and a mass density (x1 = 0.009161) of 788.869 ± 0.15 kg/m3. It also gave a mass density (x1 = 0.01574) of 789.42 ± 0.15 kg/m3.

For `CC1(C)[C@H]2CC[C@]1(CS(=O)(=O)Cl)C(=O)C2` [(1R)-(-)-10-camphorsulfonyl chloride] + CCO, the mass density (x1 = 0.0006848) was 786.329 ± 0.15 kg/m3, the mass density (x1 = 0.001385) was 787.654 ± 0.15 kg/m3 and the mass density (x1 = 0.002039) was 788.885 ± 0.15 kg/m3.

`CCO` [ethanol] + CC1(C)[C@@H]2CC[C@@]1(C)C(=O)C2 showed a mass density (x2 = 0) of 785.055 ± 0.15 kg/m3.

Work on `CCO` [ethanol] + CC1(C)[C@H]2CC[C@]1(CS(=O)(=O)Cl)C(=O)C2 yielded a mass density (x2 = 0) of 785.035 ± 0.15 kg/m3.

With `CCO` [ethanol] + CC1(C)[C@H]2CC[C@]1(C)C(=O)C2 the mass density (x2 = 0) was 785.056 ± 0.15 kg/m3.

In the case of `CC1(C)[C@H]2CC[C@]1(C)C(=O)C2=O` [(+)-camphorquinone] + CCO, the mass density (x1 = 0.001389) is reported as 786.234 ± 0.15 kg/m3, the mass density (x1 = 0.00209) is reported as 786.827 ± 0.15 kg/m3 and the mass density (x1 = 0.002792) is reported as 787.377 ± 0.15 kg/m3.

Work on `CCO` [ethanol] + CC1(C)[C@@H]2CC[C@@]1(C)C(=O)C2=O yielded a mass density (x2 = 0) of 785.025 ± 0.15 kg/m3.

`CC1(C)[C@@H]2CC[C@@]1(CS(=O)(=O)O)C(=O)C2` [(1S)-(+)-10-camphorsulfonic acid] + CCO gave a mass density (x1 = 0.001067) of 787.039 ± 0.15 kg/m3, a mass density (x1 = 0.001496) of 787.971 ± 0.15 kg/m3 and a mass density (x1 = 0.002271) of 789.368 ± 0.15 kg/m3.

`CCO` [ethanol] + CC1(C)[C@@H]2CC[C@@]1(CS(=O)(=O)O)C(=O)C2 gave a mass density (x2 = 0) of 785.026 ± 0.15 kg/m3.

For `CC1(C)[C@@H]2CC[C@@]1(C)C(=O)C2` [d-camphor] + CCO, the mass density (x1 = 0.001613) was 786.229 ± 0.15 kg/m3, the mass density (x1 = 0.003055) was 786.827 ± 0.15 kg/m3 and the mass density (x1 = 0.009161) was 788.887 ± 0.15 kg/m3. The mass density (x1 = 0.01574) was 789.421 ± 0.15 kg/m3.

`CCO` [ethanol] + CC1(C)C2CCC1(CS(=O)(=O)Cl)C(=O)C2 showed a mass density (x2 = 0) of 785.033 ± 0.15 kg/m3.

With `CCO` [ethanol] + CC1(C)[C@H]2CC[C@]1(CS(=O)(=O)O)C(=O)C2 the mass density (x2 = 0) was 785.024 ± 0.15 kg/m3.

In the case of `CC1(C)[C@H]2CC[C@]1(CS(=O)(=O)O)C(=O)C2` [(1R)-(-)-10-camphorsulfonic acid] + CCO, the mass density (x1 = 0.001067) is reported as 787.036 ± 0.15 kg/m3, the mass density (x1 = 0.001496) is reported as 787.969 ± 0.15 kg/m3 and the mass density (x1 = 0.002271) is reported as 789.366 ± 0.15 kg/m3.

Work on `CCO` [ethanol] + CC1(C)[C@@H]2CC[C@@]1(CS(N)(=O)=O)C(=O)C2 yielded a mass density (x2 = 0) of 785.013 ± 0.15 kg/m3.

Work on `CC1(C)C2CCC1(CS(=O)(=O)Cl)C(=O)C2` (stereo not drawn) [d-10-camphorsulfonyl chloride] + CCO yielded a mass density (x1 = 0.0006848) of 786.327 ± 0.15 kg/m3, a mass density (x1 = 0.001385) of 787.552 ± 0.15 kg/m3 and a mass density (x1 = 0.002039) of 788.887 ± 0.15 kg/m3.

`CC1(C)[C@@H]2CC[C@@]1(CS(N)(=O)=O)C(=O)C2` [(1S)-(+)-10-camphorsulfonamide] + CCO gave a mass density (x1 = 9.665e-05) of 785.188 ± 0.15 kg/m3, a mass density (x1 = 0.001502) of 787.624 ± 0.15 kg/m3 and a mass density (x1 = 0.002013) of 788.405 ± 0.15 kg/m3.

`CCO` [ethanol] + CC1(C)[C@H]2CC[C@]1(C)C(=O)C2=O showed a mass density (x2 = 0) of 785.022 ± 0.15 kg/m3.
